Source: ChEMBL document CHEMBL1145302, “Synthesis and antibacterial activity of C6-carbazate ketolides” (2006)
Values after ≈ are worked out from the molar mass of the structure shown.

Legend:
Type in all cases: functional
[1] = tested on: Staphylococcus aureus; assay: Antibacterial activity against erythromycin-susceptible Staphylococcus aureus Smith OC4172
[2] = tested on: Streptococcus pneumoniae; assay: Antibacterial activity against erythromycin-resistant Streptococcus pneumoniae OC4051 containing erm(B)
[3] = tested on: Haemophilus influenzae; assay: Antibacterial activity against telithromycin-susceptible Haemophilus influenzae ATCC 49766
[4] = tested on: Staphylococcus haemolyticus; assay: Antibacterial activity against erythromycin resistant Staphylococcus haemolyticus OC3882 containing erm(C)
[5] = tested on: Streptococcus pneumoniae; assay: Antibacterial activity against erythromycin-susceptible Streptococcus pneumoniae OC9132
[6] = tested on: Streptococcus pneumoniae; assay: Antibacterial activity against erythromycin-resistant Streptococcus pneumoniae OC4421 containing mef(A)
[7] = tested on: Staphylococcus aureus; assay: Antibacterial activity against erythromycin-susceptible Staphylococcus aureus Smith OC4172 in presence of 50% mouse serum
[8] = tested on: Staphylococcus aureus; assay: Antibacterial activity against Staphylococcus aureus Smith infected in sc dosed Swiss Webster mouse septicemia model
[9] = tested on: Staphylococcus aureus; assay: Antibacterial activity against Staphylococcus aureus Smith infected in orally dosed Swiss Webster mouse septicemia model; conditions: po

SMILES | MIC [1] | MIC [2] | MIC [3] | MIC [4] | MIC [5] | MIC [6] | MIC [7] | ED50 [8] | ED50 [9]
CC[C@H]1OC(=O)[C@H](C)C(=O)[C@H](C)[C@@H](O[C@@H]2O[C@H](C)C[C@H](N(C)C)[C@H]2O)[C@](C)(OC(=O)NNCCc2ccc(-c3cnccn3)cc2)C[C@@H](C)C(=O)[C@H](C)[C@H]2NC(=O)O[C@@]21C | 0.25 mg/L (≈ 0.298 µM) | 0.06 mg/L (≈ 0.0715 µM) | 2 mg/L (≈ 2.38 µM) | 0.25 mg/L (≈ 0.298 µM) | 0.03 mg/L (≈ 0.0358 µM) | 0.25 mg/L (≈ 0.298 µM) | 0.5 mg/L | – | –
CC[C@H]1OC(=O)[C@H](C)C(=O)[C@H](C)[C@@H](O[C@@H]2O[C@H](C)C[C@H](N(C)C)[C@H]2O)[C@](C)(OC(=O)NN(C)CCc2ccc(-c3ncco3)cc2)C[C@@H](C)C(=O)[C@H](C)[C@H]2NC(=O)O[C@@]21C | 0.25 mg/L (≈ 0.297 µM) | 0.06 mg/L (≈ 0.0713 µM) | 2 mg/L (≈ 2.38 µM) | 0.5 mg/L (≈ 0.594 µM) | 0.03 mg/L (≈ 0.0356 µM) | 0.12 mg/L (≈ 0.143 µM) | 0.5 mg/L | – | –
CC[C@H]1OC(=O)[C@H](C)C(=O)[C@H](C)[C@@H](O[C@@H]2O[C@H](C)C[C@H](N(C)C)[C@H]2O)[C@](C)(OC(=O)N(C)N(C)CCc2ccc(-c3cnccn3)cc2)C[C@@H](C)C(=O)[C@H](C)[C@H]2NC(=O)O[C@@]21C | 2 mg/L (≈ 2.31 µM) | 0.5 mg/L (≈ 0.577 µM) | 16 mg/L (≈ 18.5 µM) | 8 mg/L (≈ 9.23 µM) | 0.06 mg/L (≈ 0.0692 µM) | 0.5 mg/L (≈ 0.577 µM) | 4 mg/L | – | –
CC[C@H]1OC(=O)[C@H](C)C(=O)[C@H](C)[C@@H](O[C@@H]2O[C@H](C)C[C@H](N(C)C)[C@H]2O)[C@](C)(OC(=O)NNCCc2ccc(-c3ncccn3)cc2)C[C@@H](C)C(=O)[C@H](C)[C@H]2NC(=O)O[C@@]21C | 0.25 mg/L (≈ 0.298 µM) | 0.12 mg/L (≈ 0.143 µM) | 4 mg/L (≈ 4.77 µM) | 0.25 mg/L (≈ 0.298 µM) | 0.03 mg/L (≈ 0.0358 µM) | 0.12 mg/L (≈ 0.143 µM) | 0.25 mg/L | – | –
CC[C@H]1OC(=O)[C@H](C)C(=O)[C@H](C)[C@@H](O[C@@H]2O[C@H](C)C[C@H](N(C)C)[C@H]2O)[C@](C)(OC(=O)NN(C)CCc2ccc(-c3ncccn3)s2)C[C@@H](C)C(=O)[C@H](C)[C@H]2NC(=O)O[C@@]21C | 0.25 mg/L (≈ 0.291 µM) | 0.06 mg/L (≈ 0.0698 µM) | 2 mg/L (≈ 2.33 µM) | 0.25 mg/L (≈ 0.291 µM) | 0.03 mg/L (≈ 0.0349 µM) | 0.12 mg/L (≈ 0.14 µM) | 0.5 mg/L | 4.8 mg/kg | > 20 mg/kg
CC[C@H]1OC(=O)[C@H](C)C(=O)[C@H](C)[C@@H](O[C@@H]2O[C@H](C)C[C@H](N(C)C)[C@H]2O)[C@](C)(OC(=O)NN(C)Cc2ccc(-c3ncccn3)cc2)C[C@@H](C)C(=O)[C@H](C)[C@H]2NC(=O)O[C@@]21C | 2 mg/L (≈ 2.38 µM) | 0.5 mg/L (≈ 0.596 µM) | 4 mg/L (≈ 4.77 µM) | 2 mg/L (≈ 2.38 µM) | 0.06 mg/L (≈ 0.0715 µM) | 1 mg/L (≈ 1.19 µM) | 8 mg/L | – | –
CC[C@H]1OC(=O)[C@H](C)C(=O)[C@H](C)[C@@H](O[C@@H]2O[C@H](C)C[C@H](N(C)C)[C@H]2O)[C@](C)(OC(=O)NN(C)CCc2ccc(-c3ncccn3)cc2)C[C@@H](C)C(=O)[C@H](C)[C@H]2NC(=O)O[C@@]21C | 0.25 mg/L (≈ 0.293 µM) | 0.06 mg/L (≈ 0.0703 µM) | 4 mg/L (≈ 4.69 µM) | 0.5 mg/L (≈ 0.586 µM) | 0.03 mg/L (≈ 0.0352 µM) | 0.25 mg/L (≈ 0.293 µM) | 0.5 mg/L | 3.3 mg/kg | > 20 mg/kg
CC[C@H]1OC(=O)[C@H](C)C(=O)[C@H](C)[C@@H](O[C@@H]2O[C@H](C)C[C@H](N(C)C)[C@H]2O)[C@](C)(OC(=O)NN)C[C@@H](C)C(=O)[C@H](C)[C@H]2NC(=O)O[C@@]21C | 8 mg/L (≈ 12.2 µM) | 8 mg/L (≈ 12.2 µM) | 8 mg/L (≈ 12.2 µM) | 16 mg/L (≈ 24.4 µM) | 0.5 mg/L (≈ 0.761 µM) | 8 mg/L (≈ 12.2 µM) | 2 mg/L | – | –
CC[C@H]1OC(=O)[C@H](C)[C@@H](O[C@H]2C[C@@](C)(OC)[C@@H](O)[C@H](C)O2)[C@H](C)[C@@H](O[C@@H]2O[C@H](C)C[C@H](N(C)C)[C@H]2O)[C@](C)(O)C[C@@H](C)C(=O)[C@H](C)[C@@H](O)[C@]1(C)O [ERYTHROMYCIN] | 1 mg/L (≈ 1.36 µM) | > 16 mg/L | 8 mg/L (≈ 10.9 µM) | > 16 mg/L | 0.06 mg/L (≈ 0.0818 µM) | 4 mg/L (≈ 5.45 µM) | 0.06 mg/L | – | –
CC[C@H]1OC(=O)[C@H](C)C(=O)[C@H](C)[C@@H](O[C@@H]2O[C@H](C)C[C@H](N(C)C)[C@H]2O)[C@](C)(OC)C[C@@H](C)C(=O)[C@H](C)[C@H]2N(CCCCn3cnc(-c4cccnc4)c3)C(=O)O[C@]12C [TELITHROMYCIN] | 0.25 mg/L (≈ 0.308 µM) | 0.06 mg/L (≈ 0.0739 µM) | 1 mg/L (≈ 1.23 µM) | 0.25 mg/L (≈ 0.308 µM) | 0.06 mg/L (≈ 0.0739 µM) | 0.12 mg/L (≈ 0.148 µM) | 0.5 mg/L | 4.3 mg/kg | > 20 mg/kg
